These results are taken from patent US10059701B2 (Merck Patent GmbH, priority 2015, dated 2018).

Assay [1] concerns the target T1, IRAK1 (Homo sapiens, UniProt P51617).
T1 construct: His-TEV-IRAK1 (194-712); His (N); TEV cleavage site (N)
Nature of the assay: IRAK1 enzymatic assay (ADP-Glo luminescence). Type of assay: biochemical. As to conditions: purified human recombinant His-TEV-IRAK1 (194-712). The method in brief:
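Recombinant human His-TEV-IRAK1 (194-712), 0.3 μg/ml, preincubated 15 min at RT with compounds (10 μM to 0.5 nM) in 50 mM Hepes pH 7.0, 10 mM MgCl2, 2 mM DTT, 0.1% BSA. ATP-started reaction run 2 hours at RT; ADP formed from ATP hydrolysis/autophosphorylation read by ADP-Glo luminescence.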

For assay [2], the target named is T2, IRAK4 (Homo sapiens, UniProt Q9NWZ3).
T2 construct: His-TEV-IRAK4 (1-460); His (N); TEV cleavage site (N)
T2 sequence (Q9NWZ3 1-460): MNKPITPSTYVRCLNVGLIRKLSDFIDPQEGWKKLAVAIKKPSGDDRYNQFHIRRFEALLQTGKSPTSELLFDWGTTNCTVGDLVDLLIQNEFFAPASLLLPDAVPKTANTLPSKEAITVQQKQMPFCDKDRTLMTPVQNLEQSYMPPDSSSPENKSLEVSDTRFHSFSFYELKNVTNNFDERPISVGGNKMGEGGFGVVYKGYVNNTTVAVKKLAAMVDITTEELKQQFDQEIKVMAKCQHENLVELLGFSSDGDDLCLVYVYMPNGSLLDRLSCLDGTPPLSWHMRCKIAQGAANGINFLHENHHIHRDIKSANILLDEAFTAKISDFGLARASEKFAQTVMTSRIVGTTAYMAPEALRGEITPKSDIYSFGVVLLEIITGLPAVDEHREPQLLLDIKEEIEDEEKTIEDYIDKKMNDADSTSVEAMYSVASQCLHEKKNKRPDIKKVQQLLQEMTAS
Nature of the assay: IRAK4 enzymatic assay (ADP-Glo luminescence). To be noted: purified human recombinant His-TEV-IRAK4 (1-460), ATP 2 μM. The class given is biochemical. The method in brief: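 Recombinant His-TEV-IRAK4 (1-460) at 0.3 μg/ml preincubated 15 min at RT with compounds (10 μM to 0.5 nM) in Hepes pH 7.0 buffer with MgCl2/MnCl2. Reaction started with 2 μM ATP and 300 nM STK1-biotin peptide, run 2 h at RT. ADP formed read by ADP-Glo luminescence.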

Where only a bound is given, the exact number is not on record here.

T1 sequence (P51617 194-712): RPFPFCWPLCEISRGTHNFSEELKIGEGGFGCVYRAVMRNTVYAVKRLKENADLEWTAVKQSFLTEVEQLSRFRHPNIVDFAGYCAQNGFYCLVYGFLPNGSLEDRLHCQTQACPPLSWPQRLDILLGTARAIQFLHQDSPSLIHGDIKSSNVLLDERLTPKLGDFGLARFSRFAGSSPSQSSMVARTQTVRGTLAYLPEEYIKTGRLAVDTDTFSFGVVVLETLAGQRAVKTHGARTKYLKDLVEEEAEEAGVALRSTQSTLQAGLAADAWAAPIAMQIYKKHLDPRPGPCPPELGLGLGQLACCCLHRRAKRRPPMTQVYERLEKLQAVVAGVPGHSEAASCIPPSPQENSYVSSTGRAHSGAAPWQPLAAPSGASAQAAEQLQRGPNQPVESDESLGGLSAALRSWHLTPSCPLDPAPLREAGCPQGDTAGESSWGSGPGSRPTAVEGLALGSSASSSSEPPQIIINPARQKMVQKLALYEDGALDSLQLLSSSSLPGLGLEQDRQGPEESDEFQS

With `CN1CCCN(c2ccc3c(c2)[nH]/c(=N\C(=O)c2cccc(C(F)(F)F)c2)n3CCCO)C1=O` [Example 224, (E)-N-(1-(3-hydroxypropyl)-5-(3-methyl-2-oxotetrahydropyrimidin-1(2H)-yl)-1H-benzo[d]imidazol-2(3H)-ylidene)-3-(trifluoromethyl)benzamide], the IC50 in assay [1] is 100 to 1000 nM; in assay [2], not above 100 nM.

As for `CS(=O)(=O)N1CCC(n2/c(=N/C(=O)c3cccc(C(F)F)c3)[nH]c3cc(N4CCOCC4=O)ccc32)CC1` [Compound 133, (E)-3-(difluoromethyl)-N-(1-(1-(methylsulfonyl)piperidin-4-yl)-5-(3-oxomorpholino)-1H-benzo[d]imidazole-2(3H)-ylidene)benzamide], the IC50 in assay [1] and in assay [2] was not above 100 nM each time.

On to `COc1cc2c(cc1N1CCOCC1=O)[nH]/c(=N\C(=O)c1cccc(C(F)F)c1)n2CCCO` [Compound 75, (E)-3-(difluoromethyl)-N-(1-(3-hydroxypropyl)-6-methoxy-5-(3-oxomorpholino)-1H-benzo[d]imidazol-2(3H)-ylidene)benzamide], for which the IC50 in assay [1] and in assay [2] was not above 100 nM each time.

In the case of `O=C(/N=c1\[nH]c2cc(N3C(=O)COCC34CC4)ccc2n1CCCO)c1cccc(C(F)(F)F)c1` [Example 189, (E)-N-(1-(3-hydroxypropyl)-5-(5-oxo-7-oxa-4-azaspiro[2.5]octan-4-yl)-1H-benzo[d]imidazol-2(3H)-ylidene)-3-(trifluoromethyl)benzamide], the IC50 in assay [1] and in assay [2] was not above 100 nM throughout.

For `COc1cc2c(cc1N1CCOCC1=O)[nH]/c(=N\C(=O)c1cccc(C(F)F)c1)n2[C@H](C)CCO` [Compound 40, (R,E)-3-(difluoromethyl)-N-(1-(4-hydroxybutan-2-yl)-6-methoxy-5-(3-oxomorpholino)-1H-benzo[d]imidazol-2(3H)-ylidene)benzamide], the IC50 in assay [1] and in assay [2] was not above 100 nM in each case.

On to `N#Cc1cc2c(cc1N1CCOCC1=O)[nH]/c(=N\C(=O)c1cccc(C(F)(F)F)c1)n2CCCO` [Compound 138, (E)-N-(6-cyano-1-(3-hydroxypropyl)-5-(3-oxomorpholino)-1H-benzo[d]imidazol-2(3H)-ylidene)-3-(trifluoromethyl)benzamide], for which the values for the half-inhibitory concentration (IC50) in assay [1] and in assay [2] were more than 1000 nM and not above 100 nM, respectively.

Regarding `O=C(/N=c1\[nH]c2cc(N3CCOCC3=O)ccc2n1C1CCS(=O)(=O)CC1)c1cccc(C(F)(F)F)c1` [Compound 136, (E)-N-(1-(1,1-dioxidotetrahydro-2H-thiopyran-4-yl)-5-(3-oxomorpholino)-1H-benzo[d]imidazol-2(3H)-ylidene)-3-(trifluoromethyl)benzamide], the IC50 is 100 to 1000 nM in assay [1] and not above 100 nM in assay [2].

For `CC(=O)c1cccc(C(=O)/N=c2\[nH]c3cc(N4CCOCC4=O)ccc3n2CCCO)c1` [Example 231, (E)-3-acetyl-N-(1-(3-hydroxypropyl)-5-(3-oxomorpholino)-1H-benzo[d]imidazol-2(3H)-ylidene)benzamide], the 50% inhibitory concentration (IC50) is 100 to 1000 nM in assay [1] and not above 100 nM in assay [2].

`COc1cc2c(cc1N1CCOCC1=O)[nH]/c(=N\C(=O)c1cccc(C(F)(F)F)c1)n2CC1(CO)CC1` [Compound 53, (E)-N-(1-((1-(hydroxymethyl)cyclopropyl)methyl)-6-methoxy-5-(3-oxomorpholino)-1H-benzo[d]imidazol-2(3H)-ylidene)-3-(trifluoromethyl)benzamide]: the IC50 in assay [1] and in assay [2] was not above 100 nM in each case.

`O=C(/N=c1\[nH]c2cc(N3CCOCC3=O)ccc2n1[C@H]1CCCC[C@H]1CO)c1cccc(C(F)(F)F)c1` (racemic) [Compound 116, rac-(E)-N-(1-((1S,2R)-2-(hydroxymethyl)cyclohexyl)-5-(3-oxomorpholino)-1H-benzo[d]imidazol-2(3H)-ylidene)-3-(trifluoromethyl)benzamide]: the IC50 in assay [1] was more than 1000 nM; in assay [2] it was 100 to 1000 nM.

In the case of `O=C(/N=c1\[nH]c2cc(N3CCOCC3=O)c(C3CC3)cc2n1CCCO)c1cccc(C(F)(F)F)c1` [Example 208, (E)-N-(6-cyclopropyl-1-(3-hydroxypropyl)-5-(3-oxomorpholino)-1H-benzo[d]imidazol-2(3H)-ylidene)-3-(trifluoromethyl)benzamide], the IC50 in assay [1] and in assay [2] was not above 100 nM throughout.

On to `CC(C)(C)OC(=O)N1CCC(n2/c(=N/C(=O)c3cccc(C(F)F)c3)[nH]c3cc(N4CCOCC4=O)ccc32)CC1` [Compound 127, (E)-tert-butyl 4-(2-((3-(difluoromethyl)benzoyl)imino)-5-(3-oxomorpholino)-2,3-dihydro-1H-benzo[d]imidazole-1-yl)piperidine-1-carboxylate], for which the IC50 was 100 to 1000 nM in assay [1] and not above 100 nM in assay [2].

For `O=C(/C=C1\Nc2cc(N3CCOCC3=O)ccc2N1CCCO)c1cccc(C(F)(F)F)n1` [Compound 147, (E)-4-(1-(3-hydroxypropyl)-2-(2-oxo-2-(6-(trifluoromethyl)pyridin-2-yl)ethylidene)-2,3-dihydro-1H-benzo[d]imidazol-5-yl)morpholin-3-one], the IC50 in assay [1] is 100 to 1000 nM; in assay [2], not above 100 nM.

On to `CC1(C)CCOC(=O)N1c1ccc2c(c1)[nH]/c(=N\C(=O)c1cccc(C(F)F)c1)n2CCCO` [Example 218, (E)-3-(difluoromethyl)-N-(5-(4,4-dimethyl-2-oxo-1,3-oxazinan-3-yl)-1-(3-hydroxypropyl)-1H-benzo[d]imidazol-2(3H)-ylidene)benzamide], for which the IC50 in assay [1] and in assay [2] was not above 100 nM each time.

Take `O=C(/N=c1\[nH]c2cc(N3CC4CCC(C3=O)N4C3CC3)ccc2n1CCCO)c1cccc(C(F)(F)F)c1` (centres unmarked) [Example 215, (E)-N-(5-(8-cyclopropyl-2-oxo-3,8-diazabicyclo[3.2.1]octan-3-yl)-1-(3-hydroxypropyl)-1H-benzo[d]imidazol-2(3H)-ylidene)-3-(trifluoromethyl)benzamide]: the half-maximal inhibitory concentration (IC50) was more than 1000 nM in assay [1] and not above 100 nM in assay [2].

Turning to `CC(C)N1CCN(c2ccc3c(c2)[nH]/c(=N\C(=O)c2cccc(C(F)F)c2)n3CCCO)C(=O)C1` [Compound 185, (E)-3-(difluoromethyl)-N-(1-(3-hydroxypropyl)-5-(4-isopropyl-2-oxopiperazin-1-yl)-1H-benzo[d]imidazol-2(3H)-ylidene)benzamide], the IC50 in assay [1] and in assay [2] was not above 100 nM throughout.

For the molecule `NS(=O)(=O)c1cccc(C(=O)/N=c2\[nH]c3cc(N4CCOCC4=O)ccc3n2CCCO)c1` [Compound 100, (E)-N-(1-(3-hydroxypropyl)-5-(3-oxomorpholino)-1H-benzo[d]imidazol-2(3H)-ylidene)-3-sulfamoylbenzamide], the IC50 in assay [1] and in assay [2] was not above 100 nM throughout.

As for `CS(=O)(=O)CCCn1/c(=N/C(=O)c2cccc(C(F)F)c2)[nH]c2cc(N3CCOCC3=O)ccc21` [Compound 90, (E)-3-(difluoromethyl)-N-(1-(3-(methylsulfonyl)propyl)-5-(3-oxomorpholino)-1H-benzo[d]imidazol-2(3H)-ylidene)benzamide], the IC50 in assay [1] and in assay [2] was not above 100 nM throughout.

In the case of `N#Cc1cccc(C(=O)/N=c2\[nH]c3cc(N4CCCOC4=O)ccc3n2CCCO)c1` [Compound 58, (E)-3-cyano-N-(1-(3-hydroxypropyl)-5-(2-oxo-1,3-oxazinan-3-yl)-1H-benzo[d]imidazol-2(3H)-ylidene)benzamide], the IC50 in assay [1] and in assay [2] was not above 100 nM each time.

Take `C[C@H](CCO)n1/c(=N/C(=O)c2cccc(OC(F)F)c2)[nH]c2cc(N3CCOCC3=O)ccc21` [Compound 65, (R,E)-3-(difluoromethoxy)-N-(1-(4-hydroxybutan-2-yl)-5-(3-oxomorpholino)-1H-benzo[d]imidazol-2(3H)-ylidene)benzamide]: the IC50 in assay [1] and in assay [2] was not above 100 nM in each case.

Take `O=C(/N=c1\[nH]c2cc(N3CCN(CC(F)(F)F)CC3=O)ccc2n1CCCO)c1cccc(C(F)F)c1` [Compound 113, (E)-3-(difluoromethyl)-N-(1-(3-hydroxypropyl)-5-(2-oxo-4-(2,2,2-trifluoroethyl)piperazin-1-yl)-1H-benzo[d]imidazol-2(3H)-ylidene)benzamide]: the IC50 in assay [1] was 100 to 1000 nM; in assay [2] it was not above 100 nM.

As to `O=C(/N=c1\[nH]c2cc(N3CCOCC3=O)ccc2n1CCCO)c1cccc(-c2ccn(C(F)F)c(=O)c2)c1` [Compound 164, (E)-3-(1-(difluoromethyl)-2-oxo-1,2-dihydropyridin-4-yl)-N-(1-(3-hydroxypropyl)-5-(3-oxomorpholino)-1H-benzo[d]imidazol-2(3H)-ylidene)benzamide], the IC50 is 100 to 1000 nM in assay [1] and not above 100 nM in assay [2].
